Legend:
[1] = molecular target: T1, Progesterone Receptor (PR) LBD (Homo sapiens, UniProt P06401); test: TR-FRET SRC1-4 coactivator recruitment assay, PR LBD; format: biochemical; settings: Progesterone = EC80
T1 construct: purchased Invitrogen PV4666
T1 sequence (P06401 679-913 limits assumed): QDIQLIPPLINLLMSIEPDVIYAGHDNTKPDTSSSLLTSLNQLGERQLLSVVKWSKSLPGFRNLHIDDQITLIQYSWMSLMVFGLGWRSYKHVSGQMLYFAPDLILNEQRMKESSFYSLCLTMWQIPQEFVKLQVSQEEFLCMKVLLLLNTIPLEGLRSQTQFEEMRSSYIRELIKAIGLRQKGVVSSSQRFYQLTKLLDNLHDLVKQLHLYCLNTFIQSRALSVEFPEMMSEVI
Procedure: (§1) Compound binding affinities for Progesterone Receptor (PR), Glucocorticoid Receptor (GR), Estrogen Receptor alpha and Estrogen Receptor beta were determined using TR-FRET (Table 2).
(§2) Lanthascreen TR-FRET AR Coactivator Assay kit (Invitrogen, cat no. PV4381) was used to screen for potential coactivator disruptors.
(§3) TR FRET values were calculated at 10 flashes per well, using a delay time of 100 μs and integration time 200 μs as recommended by the Invitrogen assay guidelines. […] A serial dilution of compounds was firstly prepared in 100×DMSO (Sigma-Aldrich) starting from the maximum desired concentration to achieve a 12 point range concentration using 96-well polypropylene plates (Nalgene Nunc, Rochester, N.Y.). Each 100× solution was diluted to 2× concentration with TR-FRET co-regulator buffer A (Invitrogen proprietary buffer), yielding a final concentration of 1% DMSO in each well.
(§4) D11-FxxLF and Tb antibody were premixed in light protecting vials prior to use. A final concentration of DTT 5 mM was used in the assay buffer in order to prevent protein degradation. All plates (agonist and antagonist mode) were incubated between 2 and 4 hours at room temperature protected from light prior to TR-FRET measurement. […] Data was fitted using the sigmoidal dose response (variable slope) available from Graphpad Prism 5. Y=Bottom+(Top-Bottom)/(1+10^((Log IC50−X)*HillSlope))
(§5) The same procedure was used for AR T877A (Invitrogen cat no. PV4667), PR (Invitrogen cat no. PV4666), ER-α (Invitrogen cat no. PV4544), ER-β (Invitrogen cat no. PV4541) and GR (Invitrogen cat no. PV4683). The assay was adapted to exclude possible non-specific aggregation mechanism of inhibition by adding very low concentration of detergent Triton X-100 (0.001%) to the assay buffer following the Shoichet review guidelines [Shoichet BK (2006) Screening in a spirit haunted world. Drug Discov Today 11:607-615].

LNCaP cells = test: LNCaP cell proliferation assay (androgen deprived, AlamarBlue); format: cell-based; settings: LNCaP
Procedure: To determine the optimal DHT concentration and length of treatment required for cell proliferation assays, we tested a range of DHT concentrations in 0.1% DMSO for 5 or 7 days in LNCaP cells cultured in FBS stripped phenol red free media. […] Media and treatments were replaced every second incubation day (FIGS. 12 A and B)
(§6) For cell viability (end point) assays LNCaP, PC-3 and PWR-1E cells were seeded at 2.5*10^4/ml density in 200 μl volume of a 96-well plate in triplicate and incubated for 24 hours prior testing. Test compounds were included at different concentrations to achieve a final concentration of 0.5% DMSO in each well. Effect of 0.5% DMSO on cell-viability was also evaluated. Cell viability was assessed after 24 hours of treatment using 10% Alamar Blue reagent (Invitrogen) for each well. Cell viability was monitored by the reduction of resazurin, a blue, cell-permeable and non-toxic compound, to resorufin, a red and highly fluorescent product. Viable cells continuously convert resazurin to resorufin, increasing the overall colour and fluorescence of the media surrounding cells. Fluorescence intensity can be quantitatively determined with a fluorescence microplate reader at excitation/emission 544 nm/590 nm (Spectramax Gemini). For hormone dependent cell proliferation assays in androgen deprived LNCaP cells, cells were seeded at 2*10^4 cells/ml in a 24-well plate in triplicate. Cells were plated in phenol red free RPMI Glutamax (Invitrogen) supplemented with 10% charcoal-stripped FBS to deplete endogenous steroids 48 hours prior the assay as described in previous reports. […] Cells were treated with different concentrations of test compounds with or without 0.1 nM DHT to achieve a final concentration of 0.1% DMSO in each well. A control for the vehicle was included to ensure no effect on viability could be detected. Media and treatments were replaced every second day, after washing the cells twice with 1×PBS. Supernatants were collected after five days for secreted PSA levels evaluation and cell proliferation was assessed for the same plate using Alamar Blue in order to exclude non-specific effects due to toxicity issues.

22Rv1 cells = test: 22Rv1 cell proliferation assay; format: cell-based
Procedure: Thus, inhibition on cell proliferation by the compounds could not be evaluated (FIG. 14)
(§7) We repeated the same experiment in 22Rv1 cell line.
For cell viability (end point) assays LNCaP, PC-3 and PWR-1E cells were seeded at 2.5*10^4/ml density in 200 μl volume of a 96-well plate in triplicate and incubated for 24 hours prior testing. Test compounds were included at different concentrations to achieve a final concentration of 0.5% DMSO in each well. Effect of 0.5% DMSO on cell-viability was also evaluated. Cell viability was assessed after 24 hours of treatment using 10% Alamar Blue reagent (Invitrogen) for each well. Cell viability was monitored by the reduction of resazurin, a blue, cell-permeable and non-toxic compound, to resorufin, a red and highly fluorescent product. Viable cells continuously convert resazurin to resorufin, increasing the overall colour and fluorescence of the media surrounding cells. Fluorescence intensity can be quantitatively determined with a fluorescence microplate reader at excitation/emission 544 nm/590 nm (Spectramax Gemini). […] A control for the vehicle was included to ensure no effect on viability could be detected. […] Supernatants were collected after five days for secreted PSA levels evaluation and cell proliferation was assessed for the same plate using Alamar Blue in order to exclude non-specific effects due to toxicity issues.

[2] = test system: PSA expression in 22Rv1 cells; test: PSA ELISA, secreted PSA in 22Rv1 cells; format: cell-based
Procedure: (§8) To investigate compounds effect on PSA expression, a common biomarker for prostate cancer, we utilized a human PSA ELISA assay.
as §7
(§9) Secreted levels of prostate specific antigen were evaluated with a commercially available kit (Quantikine Human Kallikrein 3/PSA Immunoassay, R&D systems). The assay was performed following manufacturer's guidelines. In brief, 50 μl of standards and cell culture samples were added to pre-coated wells containing assay diluent RD1W (R&D systems) and incubated for two hours at room temperature. Unbound material was washed several times and 200 μl of Horseradish Peroxidase (HRP) labeled PSA conjugate antibody was added to each well and further incubated for two hours at room temperature. Wells were washed and treated with colored substrate (Tetramethylbenzidine) for an additional 30 minutes, after which 50 μl of stop solution (Sulphuric Acid 2N) was added per well and absorbance (450 nm with correction at 540 nm) was read with a plate reader within 30 minutes (Versamax).

[3] = molecular target: T2, Glucocorticoid Receptor (GR) LBD (Homo sapiens, UniProt P04150); test: TR-FRET SRC1-4 coactivator recruitment assay, GR LBD; format: biochemical; settings: Dexamethasone = EC80
T2 construct: purchased Invitrogen PV4683
T2 sequence (P04150 524-758 limits assumed): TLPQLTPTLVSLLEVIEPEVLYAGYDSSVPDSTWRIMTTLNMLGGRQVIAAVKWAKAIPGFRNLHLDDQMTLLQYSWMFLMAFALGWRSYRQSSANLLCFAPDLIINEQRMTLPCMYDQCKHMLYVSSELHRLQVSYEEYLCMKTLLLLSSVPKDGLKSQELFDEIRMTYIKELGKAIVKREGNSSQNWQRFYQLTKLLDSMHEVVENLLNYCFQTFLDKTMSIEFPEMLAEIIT
Procedure: as §1
Dexamethasone bound receptor recruitment of the fluorescently labelled SCR1-4 coactivator was unimpaired at screening concentrations up to 100 μM for all the diarylhydrazides evaluated (FIG. 5).
as §2, §3, §4, §5

[4] = test system: PSA expression in LNCaP cells; test: PSA ELISA, secreted PSA in LNCaP cells; format: cell-based
Procedure: as §8, §6
as §9, with “Unbound material was washed several times and 200 μl of Horseradish Peroxidase (HRP) labeled PSA conjugate antibody was added to each well and further incubated for two hours at room temperature.” left out

COc1cc(/C=N/NC(=O)c2cc3c(ccc4ccccc43)o2)cc(OC)c1O [MDG506]
effect on PR recruitment of fluorescent labelled SRC1-4 ([1]; 100 μM to 45 nM): partially inhibit
IC50 ([1]; TR-FRET, ± SEM (n = 6), read-out: NR LBDs IC50 (μM) PR): 27.7 ± 7.3 µM
DHT dependent cell proliferation (LNCaP cells; DHT 0.1 nM, 5 days): clear dose dependent effect in reducing
CPA induced cell proliferation (LNCaP cells; MDG506 at 10 or 20 μM): reduces
cell proliferation in absence of DHT / androgens (LNCaP cells; androgen deprived media, no DHT): does not induce
cell proliferation in absence of androgens (22Rv1 cells): does not induce
DHT stimulated PSA expression ([2]; 22Rv1): no effect could be seen
PSA expression in absence of androgens ([2]; 22Rv1): does not induce
CPA stimulated PSA expression ([2]; 22Rv1, MDG506 at different concentrations): reduced
effect on SRC1-4 recruitment by GR LBD ([3]; 100 μM to 12.5 μM or single point 100 μM): do not affect
IC50 ([3]; TR-FRET, ± SEM (n = 6), read-out: NR LBDs IC50 (μM) GR): > 100 µM
PSA expression in absence of androgens [4]: does not induce
CPA stimulated PSA secretion / expression ([4]; MDG506 at 10 or 20 μM): significantly (P<0.001) reduces
DHT stimulated PSA expression ([4]; concentrations up to 20 μM): dose dependent inhibition
